The structures appear in SMILES notation.

The nature of one data set: in vitro. As to conditions: human, liver microsomes.
Data set [1] can be described thus: in vivo. As to conditions: Sprague-Dawley, rat.
A short description of data set [2]: in vivo. As to conditions: Sprague-Dawley, rat, whole blood.
A short description of data set [3]: in vivo. As to conditions: Sprague-Dawley, rat. This is another data set of the same source.

In the case of `Cc1ccc2c(-c3nnc(SCCCN4CCc5ccc(-c6ncc(C)o6)cc5CC4)n3C)cccc2n1`, the CLint scaled in “in vitro” turned out to be 4.7 mL/min/g. In “in vivo [1]”, the bioavailability was determined as 27%. In the data set “in vivo [2]”, the clearance amounted to 59 mL/min/kg. In “in vivo [3]”, this molecule showed a Vd of 7.9 L/kg.

As to `Cc1ccc2c(-c3nnc(SCCCN4CCc5ccc(-c6cc(C)on6)cc5CC4)n3C)cccc2n1`, in “in vivo [1]”, the bioavailability was 24%. Besides, in the data set “in vivo [2]”, the clearance came out at 38 mL/min/kg. In the data set “in vivo [3]”, this molecule gave a distribution volume (Vd) of 3.4 L/kg.

`Cc1cnc(-c2ccc3c(c2)CCN(CCCSc2nnc(-c4cccn4C)n2C)CC3)o1`: the CLint scaled in the data set “in vitro” stood at 6.4 mL/min/g.
